Counter-ions that a name gives are not always drawn. Numbered stars: 1 amine (or outer) side, 2 acyl side, 3 side chain; on linkers, the order of the positions; unused ones are H or OH. Bridge positions count the residues as written; N and C are the ends. Square brackets hold non-standard residues; d marks the D form. Peptide text beside a SMILES is read from it. * marks the point of attachment. hTyr(3S-OH,4S-OH,3'-OSO3H) = N[C@H](C(=O)O)[C@H](O)[C@@H](O)c1ccc(O)c(OS(=O)(=O)O)c1; Orn(4R-OH,5R-OH) = O=C([C@H](C[C@@H](O)[C@@H](O)N[*:3])N[*:1])[*:2]; Pro(3S-OH,4S-Me) = C[C@H]1CN[C@H](C(=O)O)[C@H]1O; X1 = CCCCCOc1ccc(-c2cc(-c3ccc(C(=O)*)cc3)no2)cc1; Gln(3R-OH) = NC(=O)C[C@@H](O)[C@H](N)C(=O)O; Hyp = O=C(O)[C@@H]1C[C@@H](O)CN1
Each compound was assayed on PRKACA-PRKAR2A interaction (SmBiT-PRKACA / LgBiT-PRKAR2A), protein kinase A. Conditions: 0.5 h, 20 µM; inhibitor.
Parameters: NanoLuc complementation counter-screen in cell extract, PRKACA with PRKAR2A, loss of luminescence, detects NanoLuc interference

Row | SMILES | Inh (PKA)
1 | Cc1sc2c(c1C)C(c1ccc(Cl)cc1)=N[C@@H](CC(=O)Nc1ccc(O)cc1)c1nnc(C)n1-2 [UM0139428:02, OTX-015] | 7.269
2 | Cn1c(COP(=O)(NCCBr)NCCBr)cnc1[N+](=O)[O-] [UM0141638:01, TH-302] | 1.841%
3 | COC(=O)C1=CCCN(C)C1 [UM0053253:04, Arecoline hydrobromide] | -0.2973%

Same assay, conditions: counter-screen for NanoLuc interference, 0.5 h, 20 µM, inhibitor, Inh (PKA)

Row | SMILES | Inh (PKA)
4 | COc1cc(Nc2ncc(F)c(Nc3ccc4c(n3)NC(=O)C(C)(C)O4)n2)cc(OC)c1OC [UM0142079:01, R406] | 54.73%
5 | CS(=O)(=O)N1CCN(Cc2cc3nc(-c4cccc5[nH]ncc45)nc(N4CCOCC4)c3s2)CC1 [UM0130976:02, GDC-0941] | 3.012%
6 | N#CC[C@H](C1CCCC1)n1cc(-c2ncnc3[nH]ccc23)cn1 [UM0141622:01, Ruxolitinib phosphate] | 28.19%
7 | COc1cc(Nc2ncc(F)c(Nc3ccc4c(n3)N(COP(=O)(O)O)C(=O)C(C)(C)O4)n2)cc(OC)c1OC [UM0141996:01, R788 disodium] | 11.53%
8 | Cc1ccc(Nc2nccc(N(C)c3ccc4c(C)n(C)nc4c3)n2)cc1S(N)(=O)=O [UM0142006:01, Pazopanib Hydrochloride] | 14.36%

Same assay, conditions: counter-screen for NanoLuc interference; 0.5 h, 20 µM; inhibitor

Row | SMILES | Inh (PKA)
9 | COC(=O)[C@H](Cc1cccc(C(=N)N)c1)[C@@H](C)NC(=O)c1ccc(-c2cc[n+]([O-])cc2)cc1 [UM0141597:01, Otamixaban] | 3.513%
10 | CC1=CC(=O)C(C(C)C)=C/C1=N/OC(=O)c1ccccc1C [UM0141608:01, Poloxin] | 31.48%
11 | O=C1NCCCc2c1oc1ccc(O)cc21 [UM0142113:01, CID 755673] | 2.979%
12 | Cc1ccc(C(=O)C(C)CN2CCCCC2)cc1 (stereo not drawn) [UM0142383:01, Tolperisone HCl] | -1.099%
13 | O=C(Nc1cccc(C(F)(F)F)c1)Nc1cc(S(=O)(=O)NC2CC2)ccc1-c1ccsc1 [UM0141513:01, AGI-6780] | 24.76%
14 | CCCCCOc1ccc(-c2cc(-c3ccc(C(=O)N[C@H]4C[C@@H](O)[C@@H](O)NC(=O)[C@@H]5[C@@H](O)[C@@H](C)CN5C(=O)[C@H]([C@H](O)CC(N)=O)NC(=O)[C@H]([C@H](O)[C@@H](O)c5ccc(O)c(OS(=O)(=O)O)c5)NC(=O)[C@@H]5C[C@@H](O)CN5C(=O)[C@H]([C@@H](C)O)NC4=O)cc3)no2)cc1 [UM0141585:01, Micafungin sodium] (X1-[Orn(4R-OH,5R-OH)]T[Hyp][hTyr(3S-OH,4S-OH,3'-OSO3H)][Gln(3R-OH)][Pro(3S-OH,4S-Me)]; lactam 1-C) | 7.755%
15 | CCC(Sc1nnc2c(n1)[nH]c1ccccc12)C(=O)N1c2ccccc2Sc2ccccc21 (stereo not drawn) [UM0142503:01, Inauhzin] | 40.51%
16 | COc1ccc(S(=O)(=O)N(C(C)=O)c2ccccc2/C=C/c2cc[n+]([O-])cc2)cc1 [UM0141887:01, HMN-214] | 4.215%
17 | COC(=O)N(C)c1c(N)nc(-c2nn(Cc3ccccc3F)c3ncccc23)nc1N [UM0141619:01, Riociguat] | 2.487%
18 | COc1ccc(COc2ccc(Cc3cnc(N)nc3N)cc2OC)cc1 [UM0127855:02, GW2580] | 7.237%
19 | N#Cc1cc(-c2n[nH]c(-c3ccncc3)n2)ccn1 [UM0142184:01, Topiroxostat] | 3.047%
20 | N=C(N)SCCc1ccc(OCc2ccc([N+](=O)[O-])cc2)cc1 [UM0141571:01, KB-R7943 mesylate] | 7.839%
21 | CCN(c1cc(-c2ccc(CN3CCOCC3)cc2)cc(C(=O)NCc2c(C)cc(C)[nH]c2=O)c1C)C1CCOCC1 [UM0129937:03, EPZ-6438] | 4.351%
22 | C=C1C[C@@H]2[C@H](CC[C@]3(C)C(=O)CC[C@@H]23)[C@@]2(C)C=CC(=O)C=C12 [UM0141388:01, Exemestane] | 1.515%
23 | O=C(CCCCCCNC(=O)c1cnc(N(c2ccccc2)c2ccccc2)nc1)NO [UM0141695:01, Rocilinostat (ACY-1215)] | 1.949%
24 | C[C@H](Cn1cnc2c(N)ncnc21)OCP(=O)(O)O [UM0141875:01, Tenofovir] | -0.0985%
25 | CNC(=O)c1cc(COc2nnc(Nc3ccc(Cl)cc3)c3ccoc23)ccn1 [UM0142083:01, Telatinib (BAY 57-9352)] | 10.72%
26 | CN(C)Cc1cccc(N/C(=C2\C(=O)Nc3cc(C(=O)N(C)C)ccc32)c2ccccc2)c1 [BIX02189] | 9.078%
27 | CCc1c2c(nc3ccc(OC(=O)N4CCC(N5CCCCC5)CC4)cc13)-c1cc3c(c(=O)n1C2)COC(=O)[C@]3(O)CC [UM0141872:01, Irinotecan] | 0.8933%

Row | SMILES | Inh (PKA)
28 | O=C1NC(=O)/C(=C/c2ccc3nccc(-c4ccncc4)c3c2)S1 [UM0142432:01, GSK1059615] | 27.08%
29 | C[C@H](NC(=O)Cc1cc(F)cc(F)c1)C(=O)N[C@@H]1C(=O)N(C)c2ccccc2-c2ccccc21 [UM0141666:01, YO-01027 (Dibenzazepine, DBZ)] | 4.42%
30 | CCCCNc1ncc2c(-c3ccc(CN4CCN(C)CC4)cc3)cn([C@H]3CC[C@H](O)CC3)c2n1 [UM0142820:01, UNC2025] | 23.55%
31 | CC(C)C[C@H](NC(=O)[C@H](Cc1ccccc1)NC(=O)c1cnccn1)B(O)O [UM0135483:03, Bortezomib (PS-341)] | 1.59%
32 | CNC(=O)c1c(C)oc2cc(Oc3ncnc4cc(OC)c(OC)cc34)ccc12 [UM0142676:01, Fruquintinib(HMPL-013)] | 4.605%
33 | NC1=N[C@@]2(c3cc(NC(=O)c4ccc(F)cn4)ccc3F)COC[C@H]2CS1 [UM0142055:01, LY2886721] | 5.898%
34 | CCOc1cc(CC(=O)N[C@@H](CC(C)C)c2ccccc2N2CCCCC2)ccc1C(=O)O [UM0141879:01, Repaglinide] | 5.467%
35 | CC(=O)SCC(=O)c1ccc(NS(=O)(=O)c2ccc(OCCCN(C)C)cc2)nc1 [UM0141844:01, KD 5170] | 2.048%
36 | Fc1cc(F)c2c(c1)[C@H]1C=CC[C@H]1C(c1cccnc1)N2 (mixture of isomers) [UM0142231:01, Golgicide A] | 20.05%
37 | COc1cc(NC(=O)c2ccc(-c3ccc(Cl)cc3)o2)cc(OC)c1 [UM0142469:01, A-803467] | 40.39%
38 | COC[C@H](NC(=O)c1cnc(C)s1)C(=O)N[C@@H](COC)C(=O)N[C@@H](Cc1ccccc1)C(=O)[C@@]1(C)CO1 [UM0141434:01, Oprozomib (ONX-0912)] | -0.3511%
39 | CC(C)C[C@H](NC(=O)[C@@H](O)[C@H](N)Cc1ccccc1)C(=O)O [UM0141468:01, Bestatin] | 1.556%
40 | COCCOC(=O)C1=C(C)NC(C)=C(C(=O)OC/C=C/c2ccccc2)C1c1cccc([N+](=O)[O-])c1 (stereo not drawn) [UM0133650:02, Cilnidipine] | 81.64%
41 | C[C@]12CC[C@H]3[C@@H](CC[C@@]45O[C@@H]4C(O)=C(C#N)C[C@]35C)[C@@H]1CC[C@@H]2O [UM0141801:01, Trilostane] | 1.891%
42 | COc1ccc2c(c1)c(CC(=O)N1CCOCC1)c(C)n2C(=O)c1ccc(Cl)cc1 [UM0119946:02, BML-190] | 40.28%
43 | CCc1ccc(CCOc2ccc(CC3SC(=O)NC3=O)cc2)nc1 (stereo not drawn) [UM0141783:01, Pioglitazone HCl] | 13.53%
44 | O=C(Nc1ccc(OC(F)(F)F)cc1)c1sccc1NCc1ccnc2ccccc12 [UM0141486:01, OSI-930] | 39.72%
45 | O=c1ncn2nc(Sc3ccc(F)cc3F)ccc2c1-c1c(Cl)cccc1Cl [UM0142117:01, VX-745] | 8.434%

From paper PMC9995496, “A screen for MeCP2-TBL1 interaction inhibitors using a luminescence-based assay” (Scientific Reports, 2023)
